According to patent US20020071842A1, “Soluble CD1 compositions and uses thereof” (priority 2000, published 2002):

Legend:
[1] = system: T cell clones that are not CD1d-restricted; assay: Flow cytometric staining with lipid treated multimerized CD1d-Fc aggregates; type: cell-based, human; conditions: flow cytometry; 4 T cell clones that are not CD1d-restricted
Experimental: (§1) To facilitate binding to CD1 specific T cells for detection by flow cytometry, a highly multimerized form of the CD1d fusion protein was formed using fluorescently labeled protein A molecules. Protein A molecules spontaneously associate in solution at neutral pH with immunoglobulin Fc regions, forming complexes containing four Fc molecules and two protein A molecules (4+2 complexes, reference 2). The human CD1d-Fc fusion protein was incubated with Alexa 488 dye labeled protein A, and the 4+2 complexes purified by size exclusion chromatography on a Pharmacia Superose 6 column using PBS pH 7.2 as a running buffer. The purified 4+2 aggregates were concentrated to 100 μg/ml with ovalbumin as a carrier protein. The CD1d-Fc aggregate was then pre-incubated for 24 to 48 hours at 37° C. with antigenic glycolipids dissolved in DMSO at a 40:1 molar ratio of lipid to fusion protein, or with an equivalent volume of DMSO alone as a negative control. The T cell staining was performed at room temperature or 4° C. for 20 min, at a concentration of 40 μg/ml of the lipid or control treated CD1d-Fc aggregate.
(§2) To facilitate binding to CD1 specific T cells for detection by flow cytometry, a highly multimerized form of the CD1d fusion protein is formed using fluorescently labeled protein A molecules. […]

[2] = system: T cells in PBMCs purified from a healthy donor; assay: Three color flow cytometric staining of PBMCs with lipid loaded CD1d-Fc aggregates; type: cell-based, human; conditions: CD1d-Fc aggregate treated with antigen, anti-CD3 and anti-CD161 co-staining
Experimental: as §1, §2

## CCCCCCCCCCCCCCCCCCCCCCCCCC(=O)N[C@@H](CO[C@H]1O[C@H](CO)[C@H](O)[C@H](O)[C@H]1O)[C@H](O)[C@H](O)CCCCCCCCCCCCCC [α-GalCer, α-galactosylceramide]
[1]
  staining of non-CD1d-restricted T cell clones by lipid treated CD1d fusion protein: no staining
[2]
  T cells stained relative to CD1d-Fc treated with DMSO alone: about 6 fold
  T cells stained relative to the UPC10 negative control: about 10 fold
